We go through twelve compounds from patent US12630528B2, “Amino aryl derivative useful as diacylglycerol acyltransferase 2 inhibitor and use thereof” (LG CHEM, LTD., priority 2019, dated 2026).

Usually IC50 stands for the concentration at which inhibition is half-maximal.

This assay has as its target T1, human DGAT2 (Homo sapiens, UniProt Q96PD7).
T1 construct: FLAG (DYKDDDDK); made in house; host or cells: Sf-21 insect cells (BacPAK baculovirus system); membrane fraction used
T1 sequence (Q96PD7 1-388): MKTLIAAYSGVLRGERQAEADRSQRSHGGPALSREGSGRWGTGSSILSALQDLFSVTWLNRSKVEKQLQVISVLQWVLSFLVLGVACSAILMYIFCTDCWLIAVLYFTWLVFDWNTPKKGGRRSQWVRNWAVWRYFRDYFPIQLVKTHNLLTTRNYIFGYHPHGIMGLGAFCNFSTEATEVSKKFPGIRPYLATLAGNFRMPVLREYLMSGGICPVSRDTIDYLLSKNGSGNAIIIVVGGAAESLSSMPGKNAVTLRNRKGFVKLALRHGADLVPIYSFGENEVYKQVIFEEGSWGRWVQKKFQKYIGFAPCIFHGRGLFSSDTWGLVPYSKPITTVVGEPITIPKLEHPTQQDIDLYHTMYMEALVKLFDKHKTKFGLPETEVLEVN
Description: DGAT2 enzyme activity inhibition, Phospholipid FlashPlate SPA. It counts as biochemical. As to conditions: recombinant human DGAT2 membrane protein from Sf-21 cells; inhibition of [14C]-TG production; 37° C. As for the experimental part: In order to prepare the pBacPAK9-DGAT2, which is DGAT2 expression vector, the human DGAT2 gene amplified by polymerase chain reaction (PCR) was cloned into the EcoR1 and Xho1 sites of the pBacPAK9 (clonctech) vector. The nucleotide sequence of the primers used in PCR was the forward primer 5′ […] (SEQ. ID. NO: 2). The composition of the reaction solution was to contain 50 ng of cDNA clone (OriGene), 200 μM of dATP, dCTP, dTTP, dGTP, 200 nM of each primer, 1 unit of Tag DNA Polymerase (Toyobo), 1×PCR buffer, and the final volume was adjusted to 20 μl. The reaction conditions were denatured at 95° C. for 5 minutes, followed by 30 times of 94° C. for 20 seconds, 60° C. for 20 seconds, and 72° C. for 90 seconds, followed by further reaction at 72° C. for 7 minutes.
Recombinant human DGAT2 protein was expressed in Sf-21 cells, which are insect cells, by using the BacPack baculovirus expression system (Clontech). The brief manufacturing process is as follows. First, the pBacPAK9-DGAT2 expression vector was transfected with BacPAK6 virus DNA (Bsu36I digest) into sf21 cells using Bacfectin to prepare a recombinant DGAT2 expressing baculovirus. The thus prepared baculovirus was infected with Sf-21 cells at 10 MOI (multiplicity of infection), and after 72 hours, infected insect cells were collected and membrane proteins were isolated. For membrane protein separation, the cell pellet was dissolved in a sucrose solution containing 250 mM sucrose, 10 mM Tris (pH 7.4), and 1 mM ethylenediamine-tetraacetic acid (EDTA), and then homogenized by using a dounce homogenizer, and the supernatant was taken by centrifuging at 600×g for 15 minutes, and centrifuged at 100,000×g for 1 hour to discard the supernatant, and the remaining pellet was resuspended in 20 mM HEPES buffer (pH 7.4). The prepared DGAT2 overexpressing membrane protein was dispensed in 100 μl and stored at −80° C. until use. Protein concentration was quantified by using the BCA Protein Assay Kit (Thermo Scientific).
In vitro DGAT2 analysis was performed using a Phospholipid Flash Plate (PerkinElmer) based on the principle of SPA (Scintilation Proximity Assay). First, DGAT2 inhibition compounds serially diluted 5 times from 3 nM to 10 μM (final concentration, 1% DMSO) were mixed in a buffer solution containing 2 μg DGAT2-membrane protein and 20 mM HEPES, 20 mM MgCl2, 1 mg/mL BSA, 50 μM 1,2 sn-oleoyl glycerol (Sigma), put in a 96-well flash plate (FlashPlate) and reacted at 37° C. for 20 minutes, and then 1 μM [14C] ole oil CoA (PerkinElmer, NEC651050UC) was added to be a final volume of 100 μL and further reacted at 37° C. for 15 minutes. After the enzymatic reaction was completed, 100 μL of isopropanol was added, the plate was sealed with a film, and the plate was shaken slowly in a plate shaker. The next day, the amplified scintillation signal (cpm) in Topcounter (Packard) was measured to measure the degree of production of [14C]-labeled triacyl glycerol (TG) as a reaction product. The measured value when the compound was not treated was used as a positive control, and the measured value of the compound treated group was calculated as a relative % to measure the inhibition effect of the compound on TG production.
In the case of `CCOc1ccccc1O[C@@H]1CCCN(c2cncc(Nc3cccc(C(C)(C)C(=O)O)n3)n2)C1` [Example 50, (R)-2-(6-((6-(3-(2-ethoxyphenoxy)piperidin-1-yl)pyrazin-2-yl)amino)pyridin-2-yl)-2-methylpropanoic Acid], the IC50 was found to be 7200 nM. For `CCOc1ccccc1O[C@@H]1CCCN(c2cncc(Nc3cccc(CC(C)(C)C(=O)O)n3)n2)C1` [Example 51, (R)-3-(6-((6-(3-(2-ethoxyphenoxy)piperidin-1-yl)pyrazin-2-yl)amino)pyridin-2-yl)-2,2-dimethylpropanoic Acid], the IC50 was found to be 1900 nM.

In the case of `CCOc1ccccc1O[C@@H]1CCCN(c2cncc(Nc3ccnc(-c4ccc(C(C)(C)C(=O)O)cc4)n3)n2)C1` [Example 169, (R)-2-(4-(4-((6-(3-(2-ethoxyphenoxy)piperidin-1-yl)pyrazin-2-yl)amino)pyrimidin-2-yl)phenyl)-2-methylpropanoic Acid], the IC50 was 260 nM. As for `CCOc1cccnc1O[C@@H]1CCCN(c2cncc(Nc3cccc(Oc4ccc(C(=O)O)cc4)n3)n2)C1` [Example 90, (R)-4-((6-((6-(3-((3-ethoxypyridin-2-yl)oxy)piperidin-1-yl)pyrazin-2-yl)amino)pyridin-2-yl)oxy)benzoic Acid], the figure is 1200 nM.

On to `CCOc1cccnc1O[C@@H]1CCCN(c2cncc(Nc3ccnc(-c4cccc(CC(C)(C)C(=O)O)c4)n3)n2)C1` [Example 171, (R)-3-(3-(4-((6-(3-((3-ethoxypyridin-2-yl)oxy)piperidin-1-yl)pyrazin-2-yl)amino)pyrimidin-2-yl)phenyl)-2,2-dimethylpropanoic Acid], for which the IC50 stood at 240 nM. Take `CCOc1ccccc1O[C@@H]1CCCN(c2cncc(Nc3cc(CC(C)(C)C(=O)O)ccn3)n2)C1` [Example 39, (R)-3-(2-((6-(3-(2-ethoxyphenoxy)piperidin-1-yl)pyrazin-2-yl)amino)pyridin-4-yl)-2,2-dimethylpropanoic Acid]: the IC50 turned out to be 2700 nM. With `CCOc1cccnc1O[C@@H]1CCCN(c2cncc(Nc3nc(-c4cc(CC(C)(C)C(=O)O)ccc4F)ccc3F)n2)C1` [Example 108, (R)-3-(3-(6-((6-(3-((3-ethoxypyridin-2-yl)oxy)piperidin-1-yl)pyrazin-2-yl)amino)-5-fluoropyridin-2-yl)-4-fluorophenyl)-2,2-dimethylpropanoic Acid] the figure was 350 nM.

For `CCOc1ccccc1O[C@@H]1CCCN(c2cncc(Nc3cccc(-c4cccc(C(C)(C)C(=O)O)c4)n3)n2)C1` [Example 60, (R)-2-(3-(6-((6-(3-(2-ethoxyphenoxy)piperidin-1-yl)pyrazin-2-yl)amino)pyridin-2-yl)phenyl)-2-methylpropanoic Acid], the IC50 came to 220 nM. With `CCOc1ccccc1O[C@@H]1CCCN(c2cncc(Nc3nccc(-c4cccc(CCC(=O)O)c4)n3)n2)C1` [Example 145, (R)-3-(3-(2-((6-(3-(2-ethoxyphenoxy)piperidin-1-yl)pyrazin-2-yl)amino)pyrimidin-4-yl)phenyl)propanoic Acid], the IC50 is 1700 nM. As to `CCOc1ccccc1O[C@@H]1CCCN(c2cncc(Nc3nccc(N4CCC[C@H]4C(=O)O)n3)n2)C1` [Example 117, (2-((6-((R)-3-(2-ethoxyphenoxy)piperidin-1-yl)pyrazin-2-yl)amino)pyrimidin-4-yl)-L-proline], the half-maximal inhibitory concentration (IC50) was more than 10000 nM. With `CCOc1ccccc1O[C@@H]1CCCN(c2cncc(Nc3cccc(Oc4cccc(CC(=O)O)c4)n3)n2)C1` [Example 95, (R)-2-(3-((6-((6-(3-(2-ethoxyphenoxy)piperidin-1-yl)pyrazin-2-yl)amino)pyridin-2-yl)oxy)phenyl)acetic Acid], the IC50 came to 83 nM. Regarding `CCOc1ccccc1O[C@@H]1CCCN(c2cncc(Nc3nccc(N4CCC[C@@H](/C=C/C(=O)O)C4)n3)n2)C1` [Example 129, (E)-3-((S)-1-(2-((6-((R)-3-(2-ethoxyphenoxy)piperidin-1-yl)pyrazin-2-yl)amino)pyrimidin-4-yl)piperidin-3-yl)acrylic Acid], the IC50 turned out to be 800 nM.
